The values that follow come from BindingDB's records for doi:10.7270/Q2CZ35MZ (Nmmlsc, 2009).

The assay addresses T1, Bcl-2-like protein 2 (Homo sapiens, UniProt Q92843).
T1 sequence (Q92843 whole entry): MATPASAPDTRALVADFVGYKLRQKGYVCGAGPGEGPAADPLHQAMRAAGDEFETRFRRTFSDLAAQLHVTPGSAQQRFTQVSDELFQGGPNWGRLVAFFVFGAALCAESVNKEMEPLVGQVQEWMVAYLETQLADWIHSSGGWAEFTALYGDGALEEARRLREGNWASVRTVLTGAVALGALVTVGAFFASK
Briefly: Bcl-W/Bim complex disruptors – biochemical, multiplexed, bead-based flow cytometry, HTS hits, confirmation (AID 2081). A general note: A flow cytometer gives signals particle by particle.

[1] abbreviates: inactive by the depositor's call.

`CCOc1ccccc1CNc1ccc(O)cc1`: the midpoint of the response under setting [1], the EC50, lay at 26 µM. Take `COc1ccccc1NC1=C(NC(C)=O)C(=O)c2ccccc2C1=O` [N-[3-(2-methoxyanilino)-1,4-dioxonaphthalen-2-yl]acetamide]: a half-maximal effect (EC50) was put at 3.35 µM. For the compound `CNC1CCC(Br)CC(C(=O)C=Cc2cccc(OC)c2OC)C1=O` (configuration not stated) [4-bromo-2-[(E)-3-(2,3-dimethoxyphenyl)-1-oxoprop-2-enyl]-7-(methylamino)-1-cycloheptanone], the midpoint of the response under setting [1], the EC50, lay at 47.3 µM.

Take `COc1ccc(CCNC(=O)c2ccc3nc(-c4ccco4)c(-c4ccco4)nc3c2)cc1OC` [N-[2-(3,4-dimethoxyphenyl)ethyl]-2,3-di-2-furylquinoxaline-6-carboxamide]: the EC50 (in general, the concentration that produces a half-maximal response) under setting [1] is 20.8 µM. For `Cc1nnc(Sc2cc(NCCO)c([N+](=O)[O-])c3nonc23)s1` [2-[[7-[(5-methyl-1,3,4-thiadiazol-2-yl)thio]-4-nitro-2,1,3-benzoxadiazol-5-yl]amino]ethanol], it took 1.31 µM to reach a half-maximal effect (EC50). Regarding `Cc1cc2nn(-c3cccc4ccccc34)nc2cc1N` [SMR000076237], the concentration giving a half-maximal response (EC50) is 2.64 µM. In turn, `O=C(/C=C/c1ccc(-c2ccccc2[N+](=O)[O-])o1)c1ccccc1` gave an EC50 under setting [1] of 21.2 µM. `COc1cc(/N=C2\SSNC2Cl)c(OC)cc1Cl` (configuration not stated) [4-chloro-N-(4-chloro-2,5-dimethoxyphenyl)-5-dithiazolidinimine] showed an EC50 under setting [1] of 23 µM. Under setting [1], `O=C(NCc1ccccc1)c1ccc2nc(-c3ccco3)c(-c3ccco3)nc2c1` [2,3-bis(furan-2-yl)-N-(phenylmethyl)quinoxaline-6-carboxamide] gave an EC50 of 11.4 µM. In the case of `Clc1nc(NCc2cccnc2)nc(N2CCOCC2)n1` [MLS000121154], it took 15.5 µM to reach a half-maximal effect under setting [1] (EC50).

For `Oc1ccc(NCc2ccccc2OCc2ccccc2)cc1` [SMR000231540], under setting [1], the EC50 is 20.5 µM.

`CC(=O)OCCCNc1cc(Sc2nc3ccccc3s2)c2nonc2c1[N+](=O)[O-]` [MLS000521052] gave an EC50 of 0.62 µM.
